Results from patent US20220265759A1, “COMPOSITION AND METHOD FOR PROMOTING WOUND HEALING” (THE BOARD OF TRUSTEES OF THE UNIVERSITY OF ILLIOIS, priority 2019, published 2022).
Entries after “also recorded” stand apart in the source; their conditions may differ. Peptide text beside a SMILES is read from it. * marks the point of attachment. Myristoyl = CCCCCCCCCCCCCC(=O)*

Key:
eNOS = assay: Immunoblot of eNOS phosphorylation in endothelial cells; format: cell-based, human; conditions: in presence of peptide
Experimental: Immunoblot and Co-Immunoprecipitation (Co-IP). After serum starvation, inhibitors were added 45 minutes prior to stimulation for indicated times at 37° C., and cells were then collected and lysed for western blot analysis. After probing for p-eNOS (Ser1177), p-p85 (Tyr458), p-Src (Tyr 416), and p-ERK (T202/Y204), the same blots were stripped and re-probed for total proteins mentioned above. For detection of CCL28-induced protein levels of β-catenin and Bcl-2, near-confluent endothelial cells were incubated with 500 ng/ml CCL28 for 24 hours in EGM-2 medium containing 1% FBS.

CaM-eNOS binding = target: T1, CaM-eNOS binding (Homo sapiens, UniProt P0DP23); assay: Co-IP of eNOS-CaM binding in endothelial cells; format: cell-based; conditions: pretreatment, 5-minute treatment with 500 ng/ml CCL28
T1 construct: endogenous in cells
Text: (§1) Co-IP Experiments, cells or mouse wounds were collected after treatment, and lysed in 2% ODG in Tris buffer. The homogenates were further prepared for Co-IP experiments as described in the art (Chen, et al. (2018) Mol. Biol. Cell 29(10):1190-1202; Chen, et al. (2020) FASEB J. 34(4):5838-5850; Chen, et al. (2015) Ann. Rheum. Dis. 74:1898-1906).
It has been reported that calmodulin (CaM) binding to bovine eNOS occurs at residues 493-[…]-512 (SEQ ID NO:2) (Venema, et al. (1996) J. Biol. Chem. 271(11):6435-6440; Venema, et al. (1995) J. Biol. Chem. 270:14705-14711). Therefore, using Co-IP, it was assessed whether Myr-CBD7 affects eNOS-CaM binding.

cell viability = assay: Cell viability; format: cell-based
CCR10-eNOS interaction [1] = target: T2, CCR10-eNOS interaction (Mus musculus, UniProt Q9JL21); assay: Co-IP of CCR10-eNOS interaction in WT mouse wounds; format: in vivo, WT C57BL/6 mice; conditions: day 7, 50 μM
T2 construct: cells or mouse wounds were collected after treatment, and lysed in 2% ODG in Tris buffer; tissue Jackson Laboratory; host or cells: dorsal skin wounds of WT C57BL/6 or db/db mice
T2 sequence (Q9JL21 1-362): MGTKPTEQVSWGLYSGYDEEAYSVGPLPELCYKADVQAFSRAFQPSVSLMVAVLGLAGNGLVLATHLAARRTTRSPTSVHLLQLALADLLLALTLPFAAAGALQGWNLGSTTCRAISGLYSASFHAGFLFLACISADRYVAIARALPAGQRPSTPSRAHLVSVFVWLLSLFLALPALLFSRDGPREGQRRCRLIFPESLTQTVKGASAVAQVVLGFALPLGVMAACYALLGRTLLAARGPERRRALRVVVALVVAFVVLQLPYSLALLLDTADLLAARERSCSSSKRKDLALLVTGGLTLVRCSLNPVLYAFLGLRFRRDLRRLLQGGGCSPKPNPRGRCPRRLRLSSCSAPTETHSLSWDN
Text: as §1

[2] = test system: CD31, CCR10, CCL28, IL-6, IL-4, HGF mRNA; assay: Real-time RT-PCR of mRNA levels in WT mouse dermal wounds; format: in vivo, WT C57BL/6 mice
Experimental: Real-Time RT-PCR. Total cellular RNA from mouse skin wounds was extracted using nucleic acid extraction reagent sold under the tradename TRIZOL®. mRNA expression of different genes was examined by real-time RT-PCR that employed a SYBR Green PCR mix. Relative gene expression was determined by the ΔΔCt method based on GAPDH levels as described previously (Chen, et al. (2013) J. Immunol. 190:5256-5266).

CCR10-eNOS interaction [3] = target: T2, CCR10-eNOS interaction; assay: Co-IP of CCR10-eNOS interaction in db/db mouse wounds; format: in vivo, db/db mice; conditions: day 12, vs Ctl-P
Experimental: as §1
(§2) Two 8 mm full thickness excisional wounds were made on the dorsal skin of diabetic db/db mice and then 50 μl of 50 μM Myr-CBD7 peptide was topically applied. […] Reduced CCR10-eNOS interaction was also observed in the mouse wounds following treatment with Myr-CBD7 peptide as determined by Co-IP (FIG. 6).

CD31 = assay: Microvessel density (CD31 staining) in db/db mouse wounds; format: in vivo, db/db mice; conditions: day 12
Text: CD31 Staining in Mouse Wound Tissue. Formalin-fixed mouse skin samples were processed on ASP300 S automated tissue processor (Leica Biosystems, Buffalo Grove, Ill.) using a standard overnight processing protocol and embedded into paraffin blocks. Tissue was sectioned at 5 μm and stained with rabbit anti-CD31 antibody. Sections were deparaffinized, rehydrated, and stained on BOND″ RX automated stainer (Leica Biosystems, Buffalo Grove, Ill.) using a preset protocol. In brief, sections were subjected to EDTA-based antigen retrieval with BOND™ ER2 solution (Leica Biosystems, Buffalo Grove, Ill.) for 20 minutes at 100° C. Endogenous peroxidase activity and non-specific binding was blocked by treating samples with peroxidase block and protein block with Background Sniper (Biocare Medical, Pacheco, Calif.) for 15 minutes and 30 minutes at room temperature, respectively. Sections were then incubated with the primary antibody diluted at 1:200 for 30 minutes at room temperature. BOND™ Polymer Refine Detection kit (Leica Biosystems, Buffalo Grove, Ill.) was used for detection. […]
as §2

wound blood perfusion = assay: Blood perfusion by laser speckle contrast analysis (LASCA) in db/db mouse wounds; format: in vivo, db/db mice; conditions: day 7, 50 μM, vs control peptide
Experimental: Blood Perfusion Measurement. Immediately after creation of dorsal skin wounds on db/db mice using an 8 mm punch, 50 μl of 50 μM Myr-scrambled control or Myr-CBD7 peptide in F-127 gel sold under the tradename PLURONIC® was applied topically to the wounds on db/db mice. Blood perfusion was analyzed based on motion detected below the surface of the wound using a near infrared laser based PeriCam PSI laser speckle contrast analysis system (LASCA) as described previously (Elgharably, et al. (2013) Wound Repair Regen. 21(3):473-481; Das, et al. (2016) J. Immunol. 196(12):5089-5100).
To further investigate if Myr-CBD7 promotes healing of dorsal skin wounds on db/db mice by stimulating angiogenesis, blood perfusion as detected by laser speckle contrast analysis (LASCA), was monitored.

CaM-eNOS binding (Co-IP) (CaM-eNOS binding): no effect
CCR10-eNOS interaction in wounds (Co-IP) (CCR10-eNOS interaction [1]): reduced
increase of hepatocyte growth factor (HGF) mRNA level ([2]; wounds day 7, non-significant): 35%
CCR10-eNOS interaction in wounds (Co-IP) (CCR10-eNOS interaction [3]): Reduced; also recorded: disrupted
SMILES: CCCCCCCCCCCCCC(=O)N[C@@H](CCCCN)C(=O)N[C@H](C(=O)N[C@@H](CO)C(=O)N[C@@H](C)C(=O)N[C@@H](CO)C(=O)N[C@@H](CC(C)C)C(=O)N[C@@H](CCSC)C(=O)O)[C@@H](C)CC [Myr-CBD7, myr-KISASLM] (Myristoyl-KISASLM-OH)
eNOS phosphorylation (Ser1177) (eNOS): significantly enhanced
concentration without adversely affecting cell viability (cell viability): up to 100 μM
CCL28 mRNA level ([2]; wounds day 7): reduction
CCR10 mRNA level ([2]; wounds day 7): did not change
CD31 mRNA level ([2]; wounds day 7): elevated
IL-4 mRNA level ([2]; wounds day 7): enhancing
IL-6 mRNA level ([2]; wounds day 7): reduction
microvessel density (CD31 staining) (CD31): enhanced
blood perfusion (wound blood perfusion): significantly increased
